Patent publication US20160015770A1, “COMPOSITIONS FOR TREATMENT OF RETINAL DETACHMENT” (THE REGENTS OF THE UNIVERSITY OF MICHIGAN, priority 2013, published 2016)
Entries after “also recorded” stand apart in the source; their conditions may differ.

System: detached retina
Assay: Experimental retinal detachment, western blot of autophagy markers (Atg5, Atg5-12, LC3-II) in retina
Type: in vivo
Details: rat, 0.2 μg subretinal at time of detachment, 7 days, vs detached retinas alone
Protocol: All experiments were performed in accordance with the ARVO Statement for the Use of Animals in Ophthalmic and Vision Research and the guidelines established by the University Committee on Use and Care of Animals of the University of Michigan. Detachments were created in adult male Brown-Norway rats (300-400 g; Charles River Laboratories, Wilmington, Mass.) as described previously. Briefly, rodents were anesthetized with a 50:50 mix of ketamine/xylazine, and pupils were dilated with topical phenylephrine (2.5%) and tropicamide (1%). A 20-gauge microvitreoretinal blade was used to create a sclerotomy 2 mm posterior to the limbus, carefully avoiding lens damage. A subretinal injector (Glaser, 32-gauge tip; BD Ophthalmic Systems, Franklin Lakes, N.J.) was introduced through the sclerotomy into the vitreous cavity and then through a peripheral retinotomy into the subretinal space. Sodium hyaluronate (10 mg/mL, Healon OVD; Abbott Medical Optics, Uppsala, Sweden) was slowly injected to detach the neurosensory retina from the underlying RPE. In all experiments, approximately one third to one half of the neurosensory retina was detached. Detachments were created in the left eye. The right eye served as the control, with all the steps of the procedure performed except for introduction of the subretinal injector and injection of the sodium hyaluronate. […]
Retinas from experimental eyes with detachment (detached portion of retina only) and control eyes without detachment were dissected from the RPE-choroid, homogenized, and lysed in buffer containing 10 mM HEPES (pH 7.6), 0.5% IgEPal, 42 mM KCl, 1 mM phenylmethylsulfonyl fluoride, 1 mM EDTA, 1 mM EGTA, 1 mM dithiothreitol, 5 mM MgCl2, and one tablet of protease inhibitors per 10 mL buffer (Complete Mini; Roche Diagnostics GmbH, Madison, Wis.). […] The protein concentration of the supernatant was then determined (DC Protein Assay kit; Bio-Rad Laboratories, Hercules, Calif.). The protein samples were separated on SDS-polyacrylamide gels (Tris-HCl Ready Gels; Bio-Rad Laboratories). […]

CCCC[C@@H](C=O)NC(=O)[C@H](CC(C)C)NC(=O)OCc1ccccc1 [calpeptin]
Atg5 level in retina: increase in Atg5; also recorded: significantly more Atg5
